Measurements published in patent US11241434B2, “Compositions and methods for improving cognition in a subject” (Yale University, priority 2013, dated 2022).

Columns and labels:
[1] = Saracatinib drug levels in mouse brain, plasma and CSF (LC/MS/MS); type: in vivo; settings: 5 mg/kg/d; for peak CSF level / trough CSF level: one pooled sample
Procedure: Data are mean±sem for separate mice for all points except CSF where samples pooled.
In an initial cohort after 6 doses, samples were collected 30-60 minutes after dosing to obtain a peak level (FIG. 6). Drug levels were measured with an LC/MS/MS method validated for clinical samples.

PS19 mice [2] = test: Morris water maze in P301S Tau (PS19) transgenic mice; type: in vivo, mouse; settings: 8-month-old PS19 mice, 6 months of treatment, 5 mg/kg/d in diet
From the text: FIGS. 11A-11C illustrate that Fyn kinase inhibition prevents memory deficits in P301S Tau transgenic tice. FIG. 11A: Timeline of PS19 mouse treatment. FIG. 11B: Morris water maze probe trial for 8-month-old PS19 or WT mice after 6 months of AZD0530 or Vehicle treatment. Twenty four hours after the reverse learning trials in the Morris water maze, the submerged platform was removed and the fraction of 60 sec spent in the target quadrant where the hidden platform had been located previously was recorded. n=11-15/group, each dot is one mouse. Data are mean±SEM. Dashed line indicates random chance performance. […] Latency was measured as the time for the mouse to cross to the opaque box. n=16-18/group. […]
To generate chow containing chow for chronic dosing, the compound was incorporated into purified diet pellets by Research Diets, Inc. by dissolving the compound in a solution of 0.5% w/v Hydroxypropylmethylcellulose/0.1% w/v polysorbate 80 at 1.429 mg/ml. […] The dosage of the drug in the food was calculated to take into account the average amount of food eaten by a mouse in a single day per kg of weight and adjusted to be equivalent to ingesting 5 mg/kg per day.
The Morris water maze paradigm was performed as previously described (Kaufman et al., 2015, Ann Neurol 77:953-971). […] Latency was measured as the time that it took for the mouse to find and spend 1 second on the hidden platform. […]

PS19 mice [3] = test: Passive avoidance test in PS19 mice; type: in vivo, mouse; settings: 8-month-old PS19 mice, 6 months of treatment
From the text: FIGS. 11A-11C illustrate that Fyn kinase inhibition prevents memory deficits in P301S Tau transgenic tice. FIG. 11A: Timeline of PS19 mouse treatment. FIG. 11B: Morris water maze probe trial for 8-month-old PS19 or WT mice after 6 months of AZD0530 or Vehicle treatment. Twenty four hours after the reverse learning trials in the Morris water maze, the submerged platform was removed and the fraction of 60 sec spent in the target quadrant where the hidden platform had been located previously was recorded. n=11-15/group, each dot is one mouse. Data are mean±SEM. Dashed line indicates random chance performance. Two-way ANOVA reveal an interaction between genotype and treatment (p=0.014). *p<0.05; Sidak's post-hoc multiple comparisons test. FIG. 11C: Passive avoidance test for 8-month-old PS19 and WT mice after 6 months of treatment with AZD0530 or Vehicle. Latency was measured as the time for the mouse to cross to the opaque box. n=16-18/group. Wilcoxon match-pairs signed test; (WT, Vehicle: p=0.0007; WT, AZD0530: p<0.0001; […]; PS19, AZD0530: p=0.0126.)
A Passive Avoidance Controller CAT 7551 was used to conduct the passive avoidance test as previously described (Gimbel et al., 2010, J Neurosci 30:6367-6374) with slight modifications. The door delay was set to 90 seconds, and the shock intensity was set to 0.5 mA with a shock duration of 2 seconds. […]

CN1CCN(CCOc2cc(OC3CCOCC3)c3c(Nc4c(Cl)ccc5c4OCO5)ncnc3c2)CC1 [saracatinib, N-(5-chloro-benzo[d][1,3]dioxol-4-yl)-7-(2-(4-methylpiperazin-1-yl)ethoxy)-5-(tetrahydro-2H-pyran-4-yloxy)quinazolin-4-amine]
peak brain level [1]: 50 nM | trough brain level ([1]; 5 mg/kg/day): 19 to 46 nM | peak brain level ([1]; as free base): 27 ng/g | peak CSF level [1]: 13 nM | trough CSF level [1]: 8.9 nM | peak CSF level ([1]; as free base): 7 ng/mL | trough CSF level ([1]; as free base): 4.6 ng/mL | probe trial after reverse learning, time in target quadrant (PS19 mice [2]): significantly improved the memory deficit | passive avoidance at 24 hours (PS19 mice [3]): exhibited passive avoidance
